Laboratory results reported in patent US20250257401A1, “BIOMARKER FOR TUBEROUS SCLEROSIS COMPLEX WITH NO MUTATION IDENTIFIED IN TSC1 OR TSC2 GENE, AND USES THEREOF” (Guangzhou KingMed Transformative Medicine Institute Co., …, priority 2022, published 2025).

What was measured:
Assay type in all cases: cell-based, human
[1] = test system: HEK293 cells; experiment: Dose-dependent cell viability, preliminary IC50 experiment (HEK293); conditions: FIG. 6
[2] = test system: HaCaT cells; experiment: Dose-dependent cell viability, preliminary IC50 experiment (HaCaT); conditions: FIG. 6
[3] = test system: IQGAP2 gene; experiment: IQGAP2 silencing by shRNA, gene and protein expression (HaCaT); conditions: HaCaT cells; lentiviral transduction; 72 hours; FIG. 3
Description: (§1) To verify whether the abnormal IQGAP2 affected cell proliferation, IQGAP2-silenced cells were constructed using an RNAi approach. Since TSC could affect the skin and kidney of the patients, human keratinocytes (HaCaT) cells and human embryonic kidney 293 (HEK 293) cells were chosen as cell models. The shRNA sequence was designed and constructed for the IQGAP2 gene (as shown in Table 1), and IQGAP2-silenced HaCaT cells and IQGAP2-silenced HEK293 cells were obtained by lentiviral transduction. Subsequently, the cell proliferation of IQGAP2-silenced cells was detected at 24, 48, and 72 hours by using Cell Counting Kit 8 (CCK8).
(§2) The results were shown in FIGS. 3 to 4, and FIG. 3 depicted the gene expression level of IQGAP2-silenced human keratinocytes cells and IQGAP2-silenced human embryonic kidney 293 cells at 72 hours. […] And Control represented a control group, shGFP represented the empty vector control group, sh IQ IQGAP2-1, sh IQ IQGAP2-2, and sh IQ IQGAP2-3 represented the corresponding shRNA-1 to shRNA-3 primer silencing groups (repeated in triplicate for each group), respectively, and GAPDH represented the internal reference gene.

[4] = test system: IQGAP2 gene; experiment: IQGAP2 silencing by shRNA, gene and protein expression (HEK293); conditions: HEK293 cells; lentiviral transduction; 72 hours; FIG. 3
Description: as §1, §2

[5] = test system: IQGAP2-silenced cells; experiment: Cell proliferation of IQGAP2-silenced cells after administration of inhibitors (CCK8); conditions: IQGAP2-silenced HaCaT and HEK293 cells; each inhibitor in a dose of IC50; FIG. 7 and FIG. 8
Description: That is, the pathway was further determined by verifying whether the cell proliferation caused by IQGAP2 silencing can be alleviated by inhibiting the AKT activity and mTORC1 activity (key factors of the mTOR pathway) in IQGAP2-silenced cells with the inhibitors.
Then, HaCaT cells and HEK293 cells were administrated with each inhibitor in a dose of IC50.

Compound: CO[C@H]1C[C@@H]2CC[C@@H](C)[C@@](O)(O2)C(=O)C(=O)N2CCCC[C@H]2C(=O)O[C@H]([C@H](C)C[C@@H]2CC[C@@H](O)[C@H](OC)C2)CC(=O)[C@H](C)/C=C(\C)[C@@H](O)[C@@H](OC)C(=O)[C@H](C)C[C@H](C)/C=C/C=C/C=C/1C [Rapamycin]
- IC50 ([1]; Homo sapiens): 12.5 µM
- IC50 ([2]; Homo sapiens): 50 µM

Compound: IQGAP2-shRNA-3: IQGAP2-silenced shRNA sequence 5′-GCTCCAGATGGCTTTGATATC-3′ (SEQ ID NO. 3) (GCUCCAGAUGGCUUUGAUAUC)
- IQGAP2 silencing [3]: optimum silencing

Compound: IQGAP2-shRNA-1: IQGAP2-silenced shRNA sequence 5′-GCTCCTACCTACTGCGAATAT-3′ (SEQ ID NO. 1) (GCUCCUACCUACUGCGAAUAU)
- IQGAP2 silencing [4]: optimum silencing

Compound: O=c1[nH]c2ccccc2n1C1CCN(Cc2ccc(-c3nc4cc5[nH]cnc5cc4nc3-c3ccccc3)cc2)CC1 [AKT inhibitor VIII]
- cell proliferation of IQGAP2-silenced cells [5]: reduce the cell proliferation
- IC50 [1]: 12.5 µM
- IC50 [2]: 25 µM
